One block for each molecule: values may come before it.
Legend:
[1] = biological target: T1, TREM-1 (Homo sapiens, UniProt Q9NP99); experiment: TREM-1 reporter cell line blocking study (GFP expression by flow cytometry); type: cell-based; parameters: expressed in transfected cells; host or cells: TREM-1 reporter cell line (GFP read-out); settings: for binding and activation of TREM-1 receptor on reporter cells (GFP expression): TREM-1-positive reporter cells, flow cytometry; for inhibitory effect on agonist-activated TREM-1-specific cells: preincubated with compound 4 hrs, then agonist antibody AF1278 for 24 hrs
Procedure: FIG. 2A is a diagram showing that the engagement of human TREM-1 receptor activates a reporter cell line. […] FIG. 2C is a line graph of the flow cytometry data of FIG. 2B.
(§1) For blocking studies, TREM-1-positive cells were preincubated with each tested compounds for 4 hrs followed by stimulation with agonist antibody AF1278 for an additional 24 hrs (FIGS. 2A-2B).

[2] = test system: neutrophils; experiment: Assessment of cytotoxicity: number of neutrophils in TREM-1 agonist Ab-stimulated PBMCs; settings: human PBMCs, compound at 50 μM 2 hrs pretreatment, TREM-1 agonist Ab 24 hrs
Procedure: Peripheral blood mononuclear cells (PBMCs) were isolated from healthy volunteers and were stimulated with TREM-1 agonist Ab for 24 hrs, at concentration of 4 μg/ml (red) or pretreated with indicated compounds (at 50 μM) for 2 hrs and stimulated with agonist AB at concentration of 4 pg/mlfor 24 hrs (blue)

[3] = test system: reporter cells; experiment: Cytotoxicity on TREM-1 reporter cells; type: cell-based; settings: compared to Compound 118818
Procedure: as §1

[4] = test system: B16F10 murine melanoma cell; experiment: Wound healing assay (cell migration); type: cell-based; settings: 50 μM, 24 hrs
Procedure: (§2) B16F10 cells were cultured in 6 well plates incubated with either vehicle alone or vehicle with VJDT at 50 μM and streaks were made using a tip when cells were at 80% confluency. Streaks were photographed at 0 hrs or 24 hrs at 100×. B16F10 cells were treated with VJDT at 50 μM concentration followed by 10 μM CFSE labeling according to manufacturer's protocol. After 48 hrs cells were analyzed by flow cytometry for CFSE intensity that will be inversely proportional to cell proliferation. Further, cell cycle assay via propidium iodide on B16F10 cells with or without VIDT treatment was performed for investigating the anti-proliferative effect of VJDT in tumor cells

[5] = test system: B16F10 cells; experiment: Cell cycle assay via propidium iodide; type: cell-based, murine; settings: B16F10 cells with or without treatment
Procedure: as §2

[6] = test system: human hepatocellular carcinoma cells (HepG2); experiment: Cell proliferation, Cell Counting Kit-8 (CCK-8); type: cell-based; settings: HepG2, 72 hrs treatment, n=6, read-out: IC50 to inhibit cell proliferation
Procedure: Cell proliferation was measured using Cell Counting Kit-8 (CCK-8, GLPBIO, Montclair, CA. Catalog No. GK10001) according to the manufacturer's instructions. HepG2 cells were seeded in a 96-well plate at 3×10^3 cells/well and incubated at 37° C. in complete medium for 24 hrs before being treated with the indicated concentrations of VIDT for 72 hrs. After treatment, cells were incubated with 10 μl CCK8 at 37° C. for 2 hrs. Absorbance at 450 nm was determined using a microplate reader. The IC50 value was calculated on the nonlinear regression fit method by the GraphPad Prism software.

[7] = biological target: T1, TREM-1; experiment: TREM-1-mediated proinflammatory cytokine production by activated human neutrophils (flow cytometry); type: cell-based; parameters: endogenous in cells; host or cells: PBMCs from healthy human volunteers, gated on CD15/CD16 neutrophils; settings: IL-8, IL-6, IL-12 intracellular staining, vs MH and NCI 118818
Procedure: Quantification (percentage) of cytokine-positive neutrophils from untreated, Morin Hydrate (MH)-treated, 118818-treated, and VJDT 8293-treated compounds (from triplicates) was performed. Cells isolated from the same healthy volunteer have been used for indicated experiments.
PBMCs were stained cell surface markers CD15 and CD16. In addition, intracellular staining for proinflammatory cytokines, such as IL-8, IL-6 and IL-12, was performed. PBMCs were gated on CD15, CD16 markers to identify the population of neutrophils.

[8] = test system: Wild-type mice (Trem1+/+) with CCl4 injury; experiment: CCl4 liver injury, inflammatory cell infiltration at early stages of liver fibrosis; type: in vivo; settings: 25 mg/kg oral
Procedure: Wild-type mice (Trem1^+/+) were orally administered VJDT (25 mg/kg) 5 consecutive days prior to injury with CCl4 (2 ml/kg, diluted 1:4 in corn oil) (24 hrs) or one dosage of control corn oil (Sigma-Aldrich, St. Louis, MO, USA). Liver cells were isolated 24 hrs after CCl4 injury, perfused with calcium and magnesium-free 40° C. prewarmed HBSS solution (Corning Life Sciences, Corning, NY, USA) and digested with collagenase type I. The cell suspension was filtered through a 70 μm cell strainer and then centrifuged at 50 g for 5 min at 4° C. to eliminate hepatocytes. Cells remaining in the supernatant were layered on HISTOPAQUE®-1083 and centrifuged at 1000 g for 15 min at 4° C. without a break. The non-parenchymal cell fraction was washed once with PBS at 300 g for 10 min at 4° C., followed by flow cytometry.
Nonparenchymal cells isolated from Trem1^+/+ livers with CCl4 injury receiving VJDT treatment were analyzed by flow cytometry to evaluate the infiltration of myeloid cells. Liver-associated cells were classified into 3 populations: F4/80^+CD11b^− resident Kupffer cells, F4/80^+CD11b^+Ly6C^hiLy6G^lo monocyte-derived macrophages and F4/80^+CD11b^+Ly6C^loLy6G^hi inflammatory neutrophils.

[9] = test system: B16F10 cells; experiment: CFSE cell proliferation assay; type: cell-based, murine; settings: 50 μM, 48 hrs; listed as VIDT
Procedure: as §2

T1 sequence (Q9NP99 21-234): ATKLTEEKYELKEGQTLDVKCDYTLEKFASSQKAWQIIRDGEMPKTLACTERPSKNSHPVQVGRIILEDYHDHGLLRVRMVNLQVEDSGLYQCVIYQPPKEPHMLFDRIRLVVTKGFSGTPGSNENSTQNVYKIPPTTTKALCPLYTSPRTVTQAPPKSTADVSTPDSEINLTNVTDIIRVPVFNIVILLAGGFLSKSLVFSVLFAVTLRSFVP

Compound: N#CC1=CC2CN(Cc3ccccc3)C1C1C(=O)N(c3ccccc3)C(=O)C21 (stereo not shown) [Compound 118818, 9-Benzyl-1,3-dioxo-2-phenyl-2,3,3a,4,7,7a-hexahydro-1H-4,7-(epiminomethano) isoindole-5-carbonitrile]
binding and activation of TREM-1 receptor on reporter cells (GFP expression) [1]: significant enhancement of GFP expression
number of neutrophils (indicating level of cytotoxicity) [2]: 19,5%

Compound: Cc1ccc(NC(=O)Nc2nc3ccccc3s2)cc1NC(=O)Nc1nc2ccccc2s1 [Compound 319990]
cytotoxicity effect on reporter cells [3]: higher cytotoxicity effect
binding and activation of TREM-1 receptor on reporter cells (GFP expression) [1]: significant enhancement of GFP expression

Compound: O=c1c(O)c(-c2ccc(O)cc2O)oc2cc(O)cc(O)c12 [Morin Hydrate, 2′,3,4′,5,7-pentahydroxyflavone]
number of neutrophils (indicating level of cytotoxicity) [2]: 24.3%

The next lines start with results.

IC50 [6]: 14.7 µM
inhibitory effect on TREM-1 mediated proinflammatory cytokine production [7]: much stronger inhibitory effect
Compound: N#CC1=CC2C(=O)N(Cc3ccccc3)C1C1C(=O)N(c3ccccc3)C(=O)C21 [VJDT 8293, (3aR,7aR)-9-benzyl-1,3,8-trioxo-2-phenyl-2,3,3a,4,7,7a-hexahydro-1H-4,7-(epiminomethano) isoindole-5-carbonitrile]
cell migration in wound healing assay [4]: significantly inhibits
cell migration in wound healing assay ([4]; listed as VIDT): significantly inhibited
cell cycle arrest [5]: significant cell cycle arrest in the S and G2 phases
infiltration of monocyte-derived macrophages in liver ([8]; 5 consecutive days prior to CCl4 (2 ml/kg), 24 hrs after injury, p<0.001): 3-6%
infiltration of inflammatory neutrophils in liver ([8]; 5 consecutive days prior to CCl4 (2 ml/kg), 24 hrs after injury, p<0.01): 8-10%
protective effect to liver injury ([8]; CCl4 injury): strong protective effect
cytokine secretion in neutrophils ([8]; compared to control group (DMSO vehicle)): significantly decreased cytokine secretion
cell proliferation (CFSE intensity) [9]: significantly inhibites

inhibitory effect on agonist-activated TREM-1-specific cells [1]: did not provide any inhibitory effect
Compound: Cc1c(O)ccc2c(O)c(NC(=O)c3ccc4c(c3)CCC(C)(C)O4)c(=O)oc12 [compound 5157]
binding and activation of TREM-1 receptor on reporter cells (GFP expression) [1]: significant enhancement of GFP expression

inhibitory effect on agonist-activated TREM-1-specific cells [1]: did not provide any inhibitory effect
Compound: O=C(O)Cc1ccc(N=Nc2c(O)c(C(=O)O)cc3ccccc23)cc1 [compound 156563]
binding and activation of TREM-1 receptor on reporter cells (GFP expression) [1]: significant enhancement of GFP expression
